# Structures can show the parent of a compound that is named as a salt.
# Molecular target: T1, PPAR-α (Homo sapiens, UniProt Q07869)
# T1 construct: expressed in transfected cells; host or cells: CV-1 (African green monkey kidney)
# T1 sequence (Q07869 167-468): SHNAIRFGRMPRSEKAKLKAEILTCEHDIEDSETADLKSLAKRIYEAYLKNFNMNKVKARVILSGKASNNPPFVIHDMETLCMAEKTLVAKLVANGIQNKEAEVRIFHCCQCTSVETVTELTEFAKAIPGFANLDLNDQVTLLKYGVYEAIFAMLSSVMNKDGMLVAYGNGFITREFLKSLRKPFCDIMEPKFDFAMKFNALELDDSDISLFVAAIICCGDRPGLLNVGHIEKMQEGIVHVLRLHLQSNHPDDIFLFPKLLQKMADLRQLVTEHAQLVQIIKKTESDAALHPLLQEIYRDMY
# Test: Measurement of PPAR-α activity (GAL4 luciferase reporter assay in CV-1 cells)
# Assay type: cell-based
# Details: 100(A/B): A = maximum PPAR-α activity of test compound at 3, 10, 30 and 100 μM, B = activity of the compound of WO/2011/058154 at 100 μM, 18 to 20 hours, read-out: Relative fold induction (%) of PPAR α
# Description: The PPAR-α activity was measured according to the published article (THE JOURNAL OF BIOLOGICAL CHEMISTRY Vol. 270, No 0.22: 12953-12956, 1995).
# Plasmids used for the PPAR-α activity measurement were constructed as follows. A luciferase expression plasmid (UAS×5-TK-Luc) used was obtained by introducing a sequence in which five yeast GAL4-binding sequences are linked in tandem into a portion upstream of a thymidine kinase promoter of pTAL-Luc (Takara Bio Inc., 6252-1). A PPAR-α receptor expression plasmid (hGR-GAL4-hPPARα) used was obtained by introducing a human GR N-terminal region (1-76aa), a yeast GAL4 DNA-binding region (1-147aa), and a PPARα ligand-binding region (167-468aa) between Not I and Sal I sites of pExchange-1 Core Vector (Invitrogen, 211176).
# A reporter assay was conducted by the following method using African green monkey kidney-derived CV-1 cells. The CV-1 cells were seeded in a 96-well plate (Thermo Fisher Scientific K.K., 4938) at 2×10^4 cells/well by using a 10% FBS-containing DMEM (NACALAI TESQUE, INC., 0845874) medium. After culturing under conditions of 37° C. and 5% CO2 for 2 hours, the cells were transfected with the plasmids. The transfection was conducted by using Lipofectamine LTX (Invitrogen, 15338-100) according to the attached manual. The plasmid solution was prepared by adding a mixture solution of the luciferase expression plasmid and the PPAR-α receptor expression plasmid to OPTI-MEM I (Invitrogen, 11058-021). After the transfection, the test compound was added, and the cells were cultured at 37° C. in the presence of 5% CO2 for 18 to 20 hours. After the culturing, the luciferase activity was measured with Luminescensor JNR (ATTO) by using Bright-Glo (Promega, E2620).
# The fold induction of PPAR-α by each test compound was calculated by the following method. A relative fold induction (%) of PPAR-α by the test compound was defined as 100 (A/B), where A represents the maximum value of the PPAR-α activities of the test compound at 3 μM, 10 μM, 30 μM, and 100 μM, and B represents the PPAR-α activity of the compound of WO/2011/058154 at 100 μM.
row,SMILES,Emax [%]
1,"CSc1cc(F)c(F)cc1-c1ccc(OCc2cccc(C(=O)N(CC(=O)O)[C@@H](C)C(N)=O)c2)cc1 [Example 22, 2-[[(1S)-2-Amino-1-methyl-2-oxo-ethyl]-[3-[[4-(4,5-difluoro-2-methylsulfanyl-phenyl)phenoxy]methyl]benzoyl]amino]acetic Acid]",14
2,"COC(C)(C)CN(CC(=O)O)C(=O)c1cccc(COc2ccc(-c3cc(F)c(F)cc3SC)cc2)c1 [Example 23, 2-[[3-[[4-(4,5-Difluoro-2-methylsulfanyl-phenyl)phenoxy]methyl]benzoyl]-(2-methoxy-2-methyl-propyl)amino]acetic Acid]",22
3,"CCN(CC)CCN(CC(=O)O)C(=O)c1cccc(COc2ccc(-c3cc(F)c(F)cc3SC)cc2)c1 [Example 24, 2-[2-Diethylaminoethyl-[3-[[4-(4,5-difluoro-2-methylsulfanyl-phenyl)phenoxy]methyl]benzoyl]amino]acetic Acid Trifluoroacetate]",13
4,"CSc1cc(F)c(F)cc1-c1ccc(OCc2cccc(C(=O)N(CC(=O)O)CC(=O)N3CCCC3)c2)cc1 [Example 25, 2-[[3-[[4-(4,5-Difluoro-2-methylsulfanyl-phenyl)phenoxy]methyl]benzoyl]-(2-oxo-2-pyrrolidin-1-yl-ethyl)amino]acetic Acid]",13
5,"CSc1cc(F)c(F)cc1-c1ccc(OCc2cccc(C(=O)N(CCCN(C)C)CC(=O)O)c2)cc1 [Example 26, 2-[[3-[[4-(4,5-Difluoro-2-methylsulfanyl-phenyl)phenoxy]methyl]benzoyl]-[3-(dimethylamino)propyl]amino]acetic Acid Trifluoroacetate]",11
6,"CSc1cc(F)c(F)cc1-c1ccc(OCc2cccc(C(=O)N(CC(=O)O)CC(=O)O)c2)cc1 [Example 27, 2-[Carboxymethyl-[3-[[4-(4,5-difluoro-2-methylsulfanyl-phenyl)phenoxy]methyl]benzoyl]amino]acetic Acid]",10
7,"CSc1cc(F)c(F)cc1-c1ccc(OCc2cccc(C(=O)N3C[C@H](O)C[C@H]3C(=O)O)c2)cc1 [Example 29, (2S,4R)-1-[3-[[4-(4,5-Difluoro-2-methylsulfanyl-phenyl)phenoxy]methyl]benzoyl]-4-hydroxy-pyrrolidine-2-carboxylic Acid]",22
8,"COCCCN(CC(=O)O)C(=O)c1cccc(COc2ccc(-c3cc(F)c(F)cc3SC)cc2)c1 [Example 30, 2-[[3-[[4-(4,5-Difluoro-2-methylsulfanyl-phenyl)phenoxy]methyl]benzoyl]-(3-methoxypropyl)amino]acetic Acid]",83
9,"CSc1cc(F)c(F)cc1-c1ccc(OCc2cccc(C(=O)N(CCS(C)(=O)=O)CC(=O)O)c2)cc1 [Example 31, 2-[[3-[[4-(4,5-Difluoro-2-methylsulfanyl-phenyl)phenoxy]methyl]benzoyl]-(2-methylsulfonylethyl)amino]acetic Acid]",8.4
10,"CSc1cc(F)c(F)cc1-c1ccc(OCc2cccc(C(=O)N(CCCS(C)(=O)=O)CC(=O)O)c2)cc1 [Example 32, 2-[[3-[[4-(4,5-Difluoro-2-methylsulfanyl-phenyl)phenoxy]methyl]benzoyl]-(3-methylsulfonylpropyl)amino]acetic Acid]",7.1
11,"CSc1cc(F)c(F)cc1-c1ccc(OCc2cccc(C(=O)N(CC(=O)O)CC3CCOCC3)c2)cc1 [Example 34, 2-[[3-[[4-(4,5-Difluoro-2-methylsulfanyl-phenyl)phenoxy]methyl]benzoyl]-(tetrahydropyran-4-ylmethyl)amino]acetic Acid]",7.3
12,"CSc1cc(F)c(F)cc1-c1ccc(OCc2cccc(C(=O)N(CC(=O)O)C3CCNCC3)c2)cc1 [Example 36, 2-[[3-[[4-(4,5-Difluoro-2-methylsulfanyl-phenyl)phenoxy]methyl]benzoyl]-(4-piperidyl)amino]acetic Acid Trifluoroacetate]",8
13,"CSc1cc(F)c(F)cc1-c1ccc(OCc2cccc(C(=O)N(CC(=O)O)CC3CCN(C)CC3)c2)cc1 [Example 37, 2-[[3-[[4-(4,5-Difluoro-2-methylsulfanyl-phenyl)phenoxy]methyl]benzoyl]-[(1-methyl-4-piperidyl)methyl]amino]acetic Acid Trifluoroacetate]",10
14,"CCN1CCC(CN(CC(=O)O)C(=O)c2cccc(COc3ccc(-c4cc(F)c(F)cc4SC)cc3)c2)CC1 [Example 38, 2-[[3-[[4-(4,5-Difluoro-2-methylsulfanyl-phenyl)phenoxy]methyl]benzoyl]-[(1-ethyl-4-piperidyl)methyl]amino]acetic Acid Trifluoroacetate]",8.9
15,"CSc1cc(F)c(F)cc1-c1ccc(OCc2cccc(C(=O)N(CC(=O)O)Cc3cccnc3)c2)cc1 [Example 39, 2-[[3-[[4-(4,5-Difluoro-2-methylsulfanyl-phenyl)phenoxy]methyl]benzoyl]-(3-pyridylmethyl)amino]acetic Acid Trifluoroacetate]",22
16,"CSc1cc(F)c(F)cc1-c1ccc(OCc2cccc(C(=O)N(CCN3CCS(=O)(=O)CC3)CC(=O)O)c2)cc1 [Example 41, 2-[[3-[[4-(4,5-Difluoro-2-methylsulfanyl-phenyl)phenoxy]methyl]benzoyl]-[2-(1,1-dioxo-1,4-thiazinan-4-yl)ethyl]amino]acetic Acid Trifluoroacetate]",12
17,"CCNCCN(CC(=O)O)C(=O)c1cccc(COc2ccc(-c3cc(F)c(F)cc3SC)cc2)c1 [Example 43, 2-[[3-[[4-(4,5-Difluoro-2-methylsulfanyl-phenyl)phenoxy]methyl]benzoyl]-[2-(ethylamino)ethyl]amino]acetic Acid Trifluoroacetate]",9
18,"CSc1cc(F)c(F)cc1-c1ccc(OCc2cccc(C(=O)N(CCNC(C)=O)CC(=O)O)c2)cc1 [Example 44, 2-[2-Acetamidoethyl-[3-[[4-(4,5-difluoro-2-methylsulfanyl-phenyl)phenoxy]methyl]benzoyl]amino]acetic Acid]",25
19,"COC(C)CN(CC(=O)O)C(=O)c1cccc(COc2ccc(-c3cc(F)c(F)cc3SC)cc2)c1 (stereo not drawn) [Example 45, 2-[[3-[[4-(4,5-Difluoro-2-methylsulfanyl-phenyl)phenoxy]methyl]benzoyl]-(2-methoxypropyl)amino]acetic Acid]",25
20,"CSc1cc(F)c(F)cc1-c1ccc(OCc2cccc(C(=O)N(CC(=O)O)CC3CCS(=O)(=O)C3)c2)cc1 (stereo not drawn) [Example 46, 2-[[3-[[4-(4,5-Difluoro-2-methylsulfanyl-phenyl)phenoxy]methyl]benzoyl]-[(1,1-dioxothiolan-3-yl)methyl]amino]acetic Acid]",4.6
21,"CSc1cc(F)c(F)cc1-c1ccc(OCc2cccc(C(=O)N(CC(=O)O)Cc3cnco3)c2)cc1 [Example 47, 2-[[3-[[4-(4,5-Difluoro-2-methylsulfanyl-phenyl)phenoxy]methyl]benzoyl]-(oxazol-5-ylmethyl)amino]acetic Acid]",7.3
22,"CSc1cc(F)c(F)cc1-c1ccc(OCc2cccc(C(=O)N(CC(=O)O)[C@H]3CC[C@@H](N)CC3)c2)cc1 [Example 48, 2-[(4-Aminocyclohexyl)-[3-[[4-(4,5-difluoro-2-methylsulfanyl-phenyl)phenoxy]methyl]benzoyl]amino]acetic Acid Trifluoroacetate]",4
23,"COCCOCCN(CC(=O)O)C(=O)c1cccc(COc2ccc(-c3cc(F)c(F)cc3SC)cc2)c1 [Example 49, 2-[[3-[[4-(4,5-Difluoro-2-methylsulfanyl-phenyl)phenoxy]methyl]benzoyl]-[2-(2-methoxyethoxy)ethyl]amino]acetic Acid]",29
24,"CSc1cc(F)c(F)cc1-c1ccc(OCc2cccc(C(=O)N(CC(=O)O)CC3CCCNC3)c2)cc1 (stereo not drawn) [Example 50, 2-[[3-[[4-(4,5-Difluoro-2-methylsulfanyl-phenyl)phenoxy]methyl]benzoyl]-(3-piperidylmethyl)amino]acetic Acid Trifluoroacetate]",4.8

# Reference: US20160046592A1, “PHARMACEUTICAL COMPOSITION FOR THE TREATMENT OF DIABETES” (Ajinomoto Co., Inc., priority 2013, published 2016)
